# In DBAASP:
# What was measured:
# Test in all cases: ≥ marks a high value that may be exact or a test limit, other limits are often not marked, values filed in µg/mL are converted to µM
# [1] = test system: Streptococcus gordonii ATCC 10558
# [2] = test system: Streptococcus mutans GS-5
# [3] = test system: Streptococcus mutans UA159
# [4] = test system: Streptococcus sanguinis ATCC 49295
# [5] = test system: Aspergillus flavus KCTC 9471
# [6] = test system: Aspergillus fumigatus KCTC 6145
# [7] = test system: Bacillus subtilis
# [8] = test system: Botrytis cinerea
# [9] = test system: Candida albicans KCTC 7270
# [10] = test system: Escherichia coli O157:H7 ATCC 43895
# [11] = test system: Escherichia coli
# [12] = test system: Fusarium verticillioides
# [13] = test system: Listeria monocytogenes KCTC 3710
# [14] = test system: Proteus vulgaris
# [15] = test system: Pseudomonas aeruginosa
# [16] = test system: Saccharomyces cerevisiae
# [17] = test system: Salmonella typhimurium
# [18] = test system: Staphylococcus aureus
# [19] = test system: Staphylococcus epidermidis
# [20] = test system: Trichosporon beigelii
# [21] = test system: Escherichia coli K-12 594
# [22] = test system: Staphylococcus aureus ATCC 6538P
# [23] = test system: Staphylococcus aureus SR1550
# [24] = test system: Acinetobacter baumannii ATCC 19606
# [25] = test system: Acinetobacter baumannii
# [26] = test system: Bacillus subtilis ATCC 6051
# [27] = test system: Candida albicans ATCC 90028
# [28] = test system: Cryptococcus neoformans ATCC 208821
# [29] = test system: Escherichia coli ATCC 25922
# [30] = test system: Klebsiella pneumoniae ATCC 13883
# [31] = test system: Klebsiella pneumoniae ATCC 700603
# [32] = test system: Klebsiella pneumoniae ATCC BAA-2146
# [33] = test system: Klebsiella pneumoniae
# [34] = test system: Pseudomonas aeruginosa ATCC 27853
# [35] = test system: Staphylococcus aureus ATCC 43300
# [36] = test system: Aspergillus niger CECT 2694
# [37] = test system: Erwinia amylovora PMV 6076
# [38] = test system: Fusarium oxysporum f. sp. lycopersici ATCC 201829
# [39] = test system: Penicillium expansum EPS 26
# [40] = test system: Pseudomonas syringae EPS 94
# [41] = test system: Rhizopus stolonifer CECT 2344
# [42] = test system: Xanthomonas vesicatoria 2133-2
# [43] = test system: Aeromonas hydrophila
# [44] = test system: Streptococcus pyogenes
# [45] = test system: Vibrio alginolyticus
# [46] = test system: Vibrio fluvialis
# [47] = test system: Vibrio parahaemolyticus
smiles,measurement,setting,value
CC(C)C[C@H](NC(=O)[C@H](CCCN=C(N)N)NC(=O)[C@H](Cc1ccccc1)NC(=O)[C@H](Cc1ccccc1)NC(=O)[C@@H](N)[C@@H](C)O)C(=O)N[C@@H](Cc1ccccc1)C(=O)N[C@@H](CC(N)=O)C(=O)N[C@@H](CCCN=C(N)N)C(=O)N[C@@H](CO)C(=O)N[C@@H](Cc1ccccc1)C(=O)N[C@H](C(=O)O)[C@@H](C)O [TFFRLFNRSFT],MIC,[1],≥ 178 µM
same,MIC,[2],≥ 178 µM
same,MIC,[3],≥ 178 µM
same,MIC,[4],≥ 178 µM
CC[C@H](C)[C@H](NC(=O)[C@H](CCCCN)NC(=O)[C@H](CO)NC(=O)[C@H](Cc1ccccc1)NC(=O)[C@H](CC(C)C)NC(=O)[C@H](CCCCN)NC(=O)[C@H](CCC(=O)O)NC(=O)[C@H](CC(C)C)NC(=O)[C@H](CCCN=C(N)N)NC(=O)[C@H](CCCCN)NC(=O)[C@H](Cc1ccccc1)NC(=O)[C@@H](NC(=O)[C@H](CCCCN)NC(=O)[C@H](CCCCN)NC(=O)[C@H](C)N)C(C)C)C(=O)N[C@@H](Cc1ccc(O)cc1)C(=O)N[C@@H](CC(N)=O)C(=O)N[C@@H](Cc1ccc(O)cc1)C(=O)N[C@@H](CCCCN)C(N)=O [AKKVFKRLEKLFSKIYNYK],MIC,[5],≥ 50 µM
same,MIC,[6],≥ 35.4 µM
same,MIC,[7],1.56 µM
same,MIC,[8],6.25 µM
same,MIC,[9],12.5 µM
same,MIC,[10],3.13 µM
same,MIC,[11],3.13 µM
same,MIC,[12],12.5 µM
same,MIC,[13],0.78 µM
same,MIC,[14],4.42 µM
same,MIC,[15],3.13 µM
same,MIC,[16],25 µM
same,MIC,[17],0.39 µM
same,MIC,[18],3.13 µM
same,MIC,[19],3.13 µM
same,MIC,[20],1.56 µM
CC(C)C[C@H](NC(=O)[C@H](CCCN=C(N)N)NC(=O)[C@H](CC(C)C)NC(=O)[C@H](CC(C)C)NC(=O)[C@H](CC(C)C)NC(=O)[C@H](CC(C)C)NC(=O)[C@H](CC(C)C)NC(=O)[C@H](CCCN=C(N)N)NC(=O)[C@H](CC(C)C)NC(=O)[C@@H](N)CCCN=C(N)N)C(=O)N[C@@H](CCCN=C(N)N)C(N)=O [RLRLLLLLRLR],MIC,[21],24.4 µM
same,MIC,[22],1.39 µM
same,MIC,[23],24.4 µM
CC[C@H](C)[C@@H]1NC(=O)CNC(=O)[C@H](CCCN=C(N)N)NC(=O)[C@H](Cc2ccc(O)cc2)NC(=O)[C@H](C)NC(=O)[C@H](C(C)C)NC(=O)[C@H](CCCN=C(N)N)NC(=O)[C@H](Cc2ccccc2)NC(=O)[C@@H](NC(=O)[C@H](Cc2c[nH]c3ccccc23)NC(=O)[C@@H](N)CCCCN)CSSC[C@@H](C(=O)N[C@@H](CCCN=C(N)N)C(=O)O)NC(=O)[C@H](CCCN=C(N)N)NC(=O)[C@H](CCCN=C(N)N)NC(=O)[C@H](Cc2ccc(O)cc2)NC(=O)[C@H](C)NC1=O [KWCFRVAYRGIAYRRCR],MIC,[24],0.113 µM
same,MIC,[25],0.113 µM
same,MIC,[26],0.0567 µM
same,MIC,[27],3.63 µM
same,MIC,[28],0.454 µM
same,MIC,[29],0.0567 µM
same,MIC,[30],0.113 µM
same,MIC,[31],0.907 µM
same,MIC,[32],0.454 µM
same,MIC,[33],7.26 µM
same,MIC,[34],0.454 µM
same,MIC,[15],0.907 µM
same,MIC,[35],0.907 µM
CC[C@H](C)[C@H](NC(=O)[C@H](CCCCN)NC(=O)[C@H](CCCCN)NC(=O)[C@H](Cc1ccccc1)NC(=O)[C@H](CC(C)C)NC(=O)[C@H](CCCCN)NC(=O)[C@@H](N)CC(C)C)C(=O)N[C@@H](CC(C)C)C(=O)N[C@@H](CCCCN)C(=O)N[C@H](C(=O)N[C@@H](CC(C)C)C(N)=O)C(C)C [LKLFKKILKVL],MIC,[36],22.4 µM
same,MIC,[37],5.92 µM
same,MIC,[38],0.424 µM
same,MIC,[39],≥ 35.4 µM
same,MIC,[40],5.92 µM
same,MIC,[41],≥ 35.4 µM
same,MIC,[42],11 µM
CC[C@H](C)[C@H](NC(=O)[C@H](CC(N)=O)NC(=O)[C@H](CC(=O)O)NC(=O)[C@H](Cc1ccc(O)cc1)NC(=O)[C@@H](NC(=O)[C@H](CCCCN)NC(=O)[C@H](Cc1cnc[nH]1)NC(=O)[C@H](CC(C)C)NC(=O)[C@H](CC(C)C)NC(=O)[C@H](Cc1ccccc1)NC(=O)[C@H](CC(N)=O)NC(=O)[C@@H](N)C(C)C)[C@@H](C)CC)C(=O)N[C@@H](CCCN=C(N)N)C(=O)N[C@@H](Cc1ccc(O)cc1)C(=O)N[C@@H](CO)C(=O)O [VNFLLHKIYDNIRYS],MIC,[43],8.23 µM
same,MIC,[11],4.12 µM
same,MIC,[18],> 132 µM
same,MIC,[44],≥ 33 µM
same,MIC,[45],≥ 132 µM
same,MIC,[46],≥ 132 µM
same,MIC,[47],≥ 33 µM
